# Test results taken from paper PMC7191645 (Molecular Metabolism, 2020).
# Target: β3-adrenoceptor (β3-AR) (Mus musculus, UniProt P25962)
# Experiment: Epac1-camps FRET cAMP concentration-response in mature murine brown adipocytes
# Assay type: cell-based
# Chain of β3-adrenoceptor (β3-AR) (P25962 whole entry): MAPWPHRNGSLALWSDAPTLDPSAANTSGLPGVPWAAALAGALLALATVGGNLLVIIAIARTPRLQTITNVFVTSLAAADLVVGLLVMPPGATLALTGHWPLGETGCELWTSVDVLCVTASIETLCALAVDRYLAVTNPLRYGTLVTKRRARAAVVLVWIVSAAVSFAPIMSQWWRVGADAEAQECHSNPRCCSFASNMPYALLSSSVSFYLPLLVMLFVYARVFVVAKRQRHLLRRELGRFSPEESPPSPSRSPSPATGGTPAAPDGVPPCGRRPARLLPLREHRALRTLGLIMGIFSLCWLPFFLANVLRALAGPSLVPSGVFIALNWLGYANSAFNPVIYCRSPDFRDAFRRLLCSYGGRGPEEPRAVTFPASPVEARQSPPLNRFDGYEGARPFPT
smiles,measurement,value
"C[C@H](Cc1ccc2c(c1)OC(C(=O)O)(C(=O)O)O2)NC[C@H](O)c1cccc(Cl)c1 [CL, CL 316,243]",EC50,7.8 µM
